ChEMBL document CHEMBL1201862, “PubChem BioAssay data set” (2004)
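Protocol summary: plate cells (96-well), add compound at 5 concentrations, incubate 48 h, interpolate endpoints linearly. GI50 = concentration required for 50% inhibition of growth.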 Activity calls are given as the source filed them. Rule as the data show it: active = GI50 up to about 1.1 µM and inactive = higher.

Assays:
Experiment in all cases: growth of human tumour cells (NCI), 48 h
786-0 = tested on: 786-0
A549 = tested on: A549
ACHN = tested on: ACHN
BT-549 = tested on: BT-549
CAKI-1 = tested on: CAKI-1
CCRF-CEM = tested on: CCRF-CEM
COLO 205 = tested on: COLO 205
DU-145 = tested on: DU-145
EKVX = tested on: EKVX
HCC 2998 = tested on: HCC 2998
HCT-116 = tested on: HCT-116
HCT-15 = tested on: HCT-15
HL-60 = tested on: HL-60
HOP-62 = tested on: HOP-62
HT-29 = tested on: HT-29
Hs-578T = tested on: Hs-578T
IGROV-1 = tested on: IGROV-1
K562 = tested on: K562
KM12 = tested on: KM12
M14 = tested on: M14
MCF7 = tested on: MCF7
MDA-MB-231 = tested on: MDA-MB-231
MDA-MB-435 = tested on: MDA-MB-435
MDA-N = tested on: MDA-N
MOLT-4 = tested on: MOLT-4
Malme-3M = tested on: Malme-3M
NCI-H226 = tested on: NCI-H226
NCI-H23 = tested on: NCI-H23
NCI-H460 = tested on: NCI-H460
NCI/ADR-RES = tested on: NCI/ADR-RES
OVCAR-3 = tested on: OVCAR-3
OVCAR-4 = tested on: OVCAR-4
OVCAR-5 = tested on: OVCAR-5
OVCAR-8 = tested on: OVCAR-8
PC-3 = tested on: PC-3
RPMI-8226 = tested on: RPMI-8226
RXF 393 = tested on: RXF 393
SF-268 = tested on: SF-268
SF-295 = tested on: SF-295
SK-MEL-28 = tested on: SK-MEL-28
SK-MEL-2 = tested on: SK-MEL-2
SK-MEL-5 = tested on: SK-MEL-5
SK-OV-3 = tested on: SK-OV-3
SN12C = tested on: SN12C
SNB-19 = tested on: SNB-19
SNB-75 = tested on: SNB-75
SW-620 = tested on: SW-620
T47D = tested on: T47D
TK-10 = tested on: TK-10
U-251 = tested on: U-251
UACC-257 = tested on: UACC-257
UACC-62 = tested on: UACC-62
UO-31 = tested on: UO-31
A498 = tested on: A498
HOP-92 = tested on: HOP-92
LOX IMVI = tested on: LOX IMVI
NCI-H522 = tested on: NCI-H522
SF-539 = tested on: SF-539

## O=S(=O)(c1ccc(Cl)cc1)c1ccccc1C1=NCCN1
786-0
  GI50: > 100 µM (inactive)
A549
  GI50: > 100 µM (inactive)
ACHN
  GI50: > 100 µM (inactive)
BT-549
  GI50: > 100 µM (inactive)
CAKI-1
  GI50: > 100 µM (inactive)
CCRF-CEM
  GI50: > 100 µM (inactive)
COLO 205
  GI50: > 100 µM (inactive)
DU-145
  GI50: > 100 µM (inactive)
EKVX
  GI50: > 100 µM (inactive)
HCC 2998
  GI50: > 100 µM (inactive)
HCT-116
  GI50: > 100 µM (inactive)
HCT-15
  GI50: > 100 µM
HL-60
  GI50: > 100 µM (inactive)
HOP-62
  GI50: > 100 µM (inactive)
HT-29
  GI50: > 100 µM (inactive)
Hs-578T
  GI50: > 100 µM (inactive)
IGROV-1
  GI50: > 100 µM (inactive)
K562
  GI50: > 100 µM (inactive)
KM12
  GI50: > 100 µM (inactive)
M14
  GI50: > 100 µM (inactive)
MCF7
  GI50: > 100 µM (inactive)
MDA-MB-231
  GI50: > 100 µM (inactive)
MDA-MB-435
  GI50: > 100 µM (inactive)
MDA-N
  GI50: > 100 µM (inactive)
MOLT-4
  GI50: > 100 µM (inactive)
Malme-3M
  GI50: > 100 µM (inactive)
NCI-H226
  GI50: > 100 µM (inactive)
NCI-H23
  GI50: > 100 µM (inactive)
NCI-H460
  GI50: > 100 µM (inactive)
NCI/ADR-RES
  GI50: > 100 µM (inactive)
OVCAR-3
  GI50: > 100 µM (inactive)
OVCAR-4
  GI50: > 100 µM (inactive)
OVCAR-5
  GI50: > 100 µM (inactive)
OVCAR-8
  GI50: > 100 µM (inactive)
PC-3
  GI50: > 100 µM (inactive)
RPMI-8226
  GI50: > 100 µM (inactive)
RXF 393
  GI50: > 100 µM (inactive)
SF-268
  GI50: > 100 µM (inactive)
SF-295
  GI50: > 100 µM (inactive)
SK-MEL-28
  GI50: > 100 µM (inactive)
SK-MEL-2
  GI50: > 100 µM (inactive)
SK-MEL-5
  GI50: > 100 µM (inactive)
SK-OV-3
  GI50: > 100 µM (inactive)
SN12C
  GI50: > 100 µM (inactive)
SNB-19
  GI50: > 100 µM (inactive)
SNB-75
  GI50: > 100 µM (inactive)
SW-620
  GI50: > 100 µM (inactive)
T47D
  GI50: > 100 µM (inactive)
TK-10
  GI50: > 100 µM (inactive)
U-251
  GI50: > 100 µM (inactive)
UACC-257
  GI50: > 100 µM (inactive)
UACC-62
  GI50: > 100 µM (inactive)
UO-31
  GI50: > 100 µM (inactive)

## COc1ccc(CC2c3cc4c(cc3CCN2C)OCO4)c(C=O)c1OC (centres undefined)
786-0
  GI50: > 100 µM (inactive)
A498
  GI50: > 100 µM (inactive)
A549
  GI50: > 100 µM (inactive)
ACHN
  GI50: > 100 µM (inactive)
BT-549
  GI50: > 100 µM (inactive)
CAKI-1
  GI50: 60.5 µM (inactive)
CCRF-CEM
  GI50: > 100 µM (inactive)
COLO 205
  GI50: > 100 µM (inactive)
DU-145
  GI50: > 100 µM (inactive)
EKVX
  GI50: > 100 µM (inactive)
HCC 2998
  GI50: > 100 µM (inactive)
HCT-116
  GI50: > 100 µM (inactive)
HCT-15
  GI50: > 100 µM
HL-60
  GI50: > 100 µM (inactive)
HOP-92
  GI50: > 100 µM (inactive)
HT-29
  GI50: > 100 µM (inactive)
Hs-578T
  GI50: > 100 µM (inactive)
IGROV-1
  GI50: > 100 µM (inactive)
K562
  GI50: > 100 µM (inactive)
KM12
  GI50: > 100 µM (inactive)
LOX IMVI
  GI50: > 100 µM (inactive)
M14
  GI50: > 100 µM (inactive)
MCF7
  GI50: > 100 µM (inactive)
MDA-MB-231
  GI50: > 100 µM (inactive)
MDA-MB-435
  GI50: > 100 µM (inactive)
MDA-N
  GI50: > 100 µM (inactive)
MOLT-4
  GI50: > 100 µM (inactive)
Malme-3M
  GI50: > 100 µM (inactive)
NCI-H226
  GI50: 57.9 µM (inactive)
NCI-H23
  GI50: > 100 µM (inactive)
NCI-H460
  GI50: > 100 µM (inactive)
NCI-H522
  GI50: > 100 µM (inactive)
NCI/ADR-RES
  GI50: > 100 µM (inactive)
OVCAR-3
  GI50: > 100 µM (inactive)
OVCAR-4
  GI50: > 100 µM (inactive)
OVCAR-5
  GI50: > 100 µM (inactive)
OVCAR-8
  GI50: > 100 µM (inactive)
PC-3
  GI50: > 100 µM (inactive)
RPMI-8226
  GI50: > 100 µM (inactive)
SF-268
  GI50: > 100 µM (inactive)
SF-295
  GI50: > 100 µM (inactive)
SF-539
  GI50: > 100 µM (inactive)
SK-MEL-28
  GI50: > 100 µM (inactive)
SK-MEL-2
  GI50: > 100 µM (inactive)
SK-MEL-5
  GI50: > 100 µM (inactive)
SK-OV-3
  GI50: > 100 µM (inactive)
SN12C
  GI50: > 100 µM (inactive)
SNB-19
  GI50: > 100 µM (inactive)
SNB-75
  GI50: 40.8 µM (inactive)
SW-620
  GI50: > 100 µM (inactive)
T47D
  GI50: > 100 µM (inactive)
TK-10
  GI50: > 100 µM (inactive)
U-251
  GI50: > 100 µM (inactive)
UACC-257
  GI50: > 100 µM (inactive)
UACC-62
  GI50: > 100 µM (inactive)
UO-31
  GI50: > 100 µM (inactive)
